Tested on: 699152-130-R-J1-PDC complex spheroid viability
Test: Anticancer human tumor 699152-130-R-J1-PDC patient-derived pancreatic carcinoma cell line growth inhibition [POLQ]
Conditions: for IC50: curve of first compound; for viability, T/C: stronger effect = lower value
Method in brief: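 Complex spheroid viability model combining PDC tumour cells with endothelial (HUVEC) and MSC stromal cells. Novobiocin, ART-558 or RP6685 were tested singly and in combination with standard and investigational anticancer drugs. Each was titrated in half-log steps from near clinical Cmax, or from 10 microM where Cmax was unknown.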

[1] = second compound 0.0316 µM, first compound 0.0316 µM
[2] = second compound 0.0316 µM, first compound 0.1 µM
[3] = second compound 0.0316 µM, first compound 0.316 µM
[4] = second compound 0.0316 µM, first compound 1 µM
[5] = second compound 0.0316 µM, first compound 3.16 µM
[6] = second compound 0.0316 µM, first compound 10 µM
[7] = second compound 0.1 µM, first compound 0.0316 µM
[8] = second compound 0.1 µM, first compound 0.1 µM
[9] = second compound 0.1 µM, first compound 0.316 µM
[10] = second compound 0.1 µM, first compound 1 µM
[11] = second compound 0.1 µM, first compound 3.16 µM
[12] = second compound 0.1 µM, first compound 10 µM
[13] = second compound 0.316 µM, first compound 0.0316 µM
[14] = second compound 0.316 µM, first compound 0.1 µM
[15] = second compound 0.316 µM, first compound 0.316 µM
[16] = second compound 0.316 µM, first compound 1 µM
[17] = second compound 0.316 µM, first compound 3.16 µM
[18] = second compound 0.316 µM, first compound 10 µM
[19] = second compound 1 µM, first compound 0.0316 µM
[20] = second compound 1 µM, first compound 0.1 µM
[21] = second compound 1 µM, first compound 0.316 µM
[22] = second compound 1 µM, first compound 1 µM
[23] = second compound 1 µM, first compound 3.16 µM
[24] = second compound 1 µM, first compound 10 µM
[25] = second compound 3.16 µM, first compound 0.0316 µM
[26] = second compound 3.16 µM, first compound 0.1 µM
[27] = second compound 3.16 µM, first compound 0.316 µM
[28] = second compound 3.16 µM, first compound 1 µM
[29] = second compound 3.16 µM, first compound 3.16 µM
[30] = second compound 3.16 µM, first compound 10 µM
[31] = second compound 10 µM, first compound 0.0316 µM
[32] = second compound 10 µM, first compound 0.1 µM
[33] = second compound 10 µM, first compound 0.316 µM
[34] = second compound 10 µM, first compound 1 µM
[35] = second compound 10 µM, first compound 3.16 µM
[36] = second compound 10 µM, first compound 10 µM
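Further: spheroids exposed to agents for 7 days before viability reading.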
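Wherever viability, T/C is given: percent of DMSO vehicle control viability so 100% = vehicle and 0% = no viable signal.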

CC1COCCN1c1cc(C2(S(C)(=N)=O)CC2)nc(-c2ccnc3[nH]ccc23)n1 (stereo not drawn) + COC1C(OC(N)=O)C(O)C(Oc2ccc3c(O)c(NC(=O)c4ccc(O)c(CC=C(C)C)c4)c(=O)oc3c2C)OC1(C)C
IC50 (second compound 0.0316 µM): > 10 µM | IC50 (second compound 0.1 µM): > 10 µM | IC50 (second compound 0.316 µM): > 10 µM | IC50 (second compound 1 µM): > 10 µM | IC50 (second compound 3.16 µM): > 10 µM | IC50 (second compound 10 µM): > 10 µM | viability, T/C [1]: 103% | viability, T/C [2]: 102% | viability, T/C [3]: 95.4% | viability, T/C [4]: 96.6% | viability, T/C [5]: 79% | viability, T/C [6]: 69.3% | viability, T/C [7]: 89.8% | viability, T/C [8]: 88% | viability, T/C [9]: 90.2% | viability, T/C [10]: 101% | viability, T/C [11]: 73.3% | viability, T/C [12]: 60.4% | viability, T/C [13]: 98% | viability, T/C [14]: 101% | viability, T/C [15]: 106% | viability, T/C [16]: 88.3% | viability, T/C [17]: 78.8% | viability, T/C [18]: 63% | viability, T/C [19]: 119% | viability, T/C [20]: 97.6% | viability, T/C [21]: 108% | viability, T/C [22]: 92.9% | viability, T/C [23]: 77.8% | viability, T/C [24]: 66.5% | viability, T/C [25]: 108% | viability, T/C [26]: 99.2% | viability, T/C [27]: 98.1% | viability, T/C [28]: 86.4% | viability, T/C [29]: 69.3% | viability, T/C [30]: 64.5% | viability, T/C [31]: 104% | viability, T/C [32]: 107% | viability, T/C [33]: 90.7% | viability, T/C [34]: 90.7% | viability, T/C [35]: 86% | viability, T/C [36]: 87.3%

CC(C)n1c(=O)n(C)c2cnc3cc(F)c(-c4ccc(OCCCN5CCCCC5)nc4)cc3c21 + COC1C(OC(N)=O)C(O)C(Oc2ccc3c(O)c(NC(=O)c4ccc(O)c(CC=C(C)C)c4)c(=O)oc3c2C)OC1(C)C
IC50 (second compound 0.0316 µM): < 0.0316 µM | IC50 (second compound 0.1 µM): < 0.0316 µM | IC50 (second compound 0.316 µM): < 0.0316 µM | IC50 (second compound 1 µM): < 0.0316 µM | IC50 (second compound 3.16 µM): < 0.0316 µM | IC50 (second compound 10 µM): < 0.0316 µM | viability, T/C [1]: 38.8% | viability, T/C [2]: 44.1% | viability, T/C [3]: 39.9% | viability, T/C [4]: 47.7% | viability, T/C [5]: 46.4% | viability, T/C [6]: 45.8% | viability, T/C [7]: 34.7% | viability, T/C [8]: 40.6% | viability, T/C [9]: 41.8% | viability, T/C [10]: 41% | viability, T/C [11]: 38.9% | viability, T/C [12]: 39.9% | viability, T/C [13]: 38.9% | viability, T/C [14]: 39.2% | viability, T/C [15]: 46.5% | viability, T/C [16]: 44.8% | viability, T/C [17]: 42% | viability, T/C [18]: 43.5% | viability, T/C [19]: 40.9% | viability, T/C [20]: 44.4% | viability, T/C [21]: 40.4% | viability, T/C [22]: 39.6% | viability, T/C [23]: 41.8% | viability, T/C [24]: 41.8% | viability, T/C [25]: 40.5% | viability, T/C [26]: 41.9% | viability, T/C [27]: 41.7% | viability, T/C [28]: 47.2% | viability, T/C [29]: 42.6% | viability, T/C [30]: 41.3% | viability, T/C [31]: 48.5% | viability, T/C [32]: 39.8% | viability, T/C [33]: 37.8% | viability, T/C [34]: 38.3% | viability, T/C [35]: 44.6% | viability, T/C [36]: 37.5%

O=c1[nH]cc(F)c(=O)[nH]1 + Nc1ccc(C#CCN(C(=O)Cc2ncc(C(F)(F)F)cc2C(F)(F)F)c2ccc(F)cc2)nn1
IC50 (second compound 0.0316 µM): > 10 µM | IC50 (second compound 0.1 µM): > 10 µM | IC50 (second compound 0.316 µM): > 10 µM | IC50 (second compound 1 µM): > 10 µM | IC50 (second compound 3.16 µM): > 10 µM | IC50 (second compound 10 µM): > 10 µM | viability, T/C [1]: 105% | viability, T/C [2]: 105% | viability, T/C [3]: 99.3% | viability, T/C [4]: 97.9% | viability, T/C [5]: 98.1% | viability, T/C [6]: 82.1% | viability, T/C [7]: 100% | viability, T/C [8]: 121% | viability, T/C [9]: 104% | viability, T/C [10]: 88.7% | viability, T/C [11]: 97.3% | viability, T/C [12]: 76.9% | viability, T/C [13]: 108% | viability, T/C [14]: 104% | viability, T/C [15]: 103% | viability, T/C [16]: 102% | viability, T/C [17]: 97.5% | viability, T/C [18]: 81.5% | viability, T/C [19]: 113% | viability, T/C [20]: 95.5% | viability, T/C [21]: 97.6% | viability, T/C [22]: 103% | viability, T/C [23]: 87.8% | viability, T/C [24]: 75.9% | viability, T/C [25]: 111% | viability, T/C [26]: 104% | viability, T/C [27]: 93.9% | viability, T/C [28]: 95.6% | viability, T/C [29]: 104% | viability, T/C [30]: 88.4% | viability, T/C [31]: 116% | viability, T/C [32]: 110% | viability, T/C [33]: 119% | viability, T/C [34]: 105% | viability, T/C [35]: 105% | viability, T/C [36]: 87.7%

COc1ccc([C@@H](O)c2cc(-c3ncnc4cc(N5CCOCC5)ccc34)c(F)cc2Cl)nn1 + Cc1cccc(N(C)C(=O)C2C(O)CCN2c2nc(C)cc(C(F)(F)F)c2C#N)c1
IC50 (second compound 0.0316 µM): 4.08 µM | IC50 (second compound 0.1 µM): 3.67 µM | IC50 (second compound 0.316 µM): 4.14 µM | IC50 (second compound 1 µM): 3.54 µM | IC50 (second compound 3.16 µM): 3.35 µM | IC50 (second compound 10 µM): 4.46 µM | viability, T/C [1]: 96.5% | viability, T/C [2]: 94.2% | viability, T/C [3]: 98.3% | viability, T/C [4]: 78.9% | viability, T/C [5]: 58.8% | viability, T/C [6]: 22.6% | viability, T/C [7]: 101% | viability, T/C [8]: 106% | viability, T/C [9]: 87.7% | viability, T/C [10]: 85.3% | viability, T/C [11]: 52.5% | viability, T/C [12]: 22.9% | viability, T/C [13]: 106% | viability, T/C [14]: 88.9% | viability, T/C [15]: 90.4% | viability, T/C [16]: 84% | viability, T/C [17]: 56.9% | viability, T/C [18]: 22.6% | viability, T/C [19]: 109% | viability, T/C [20]: 95.8% | viability, T/C [21]: 90.1% | viability, T/C [22]: 78.9% | viability, T/C [23]: 51.4% | viability, T/C [24]: 21.2% | viability, T/C [25]: 111% | viability, T/C [26]: 94.7% | viability, T/C [27]: 83.6% | viability, T/C [28]: 75.2% | viability, T/C [29]: 51% | viability, T/C [30]: 27.4% | viability, T/C [31]: 101% | viability, T/C [32]: 100% | viability, T/C [33]: 88.8% | viability, T/C [34]: 74.1% | viability, T/C [35]: 60.2% | viability, T/C [36]: 30.9%

Source: PubChem BioAssay AID1963835 (Molecular Pharmacology Branch, DTP, NCI, 2024)
